≈ marks a conversion by molar mass, not a printed value.
Key:
[1] = tested on: HT-29 human colon carcinoma cells; assay: Sulforhodamine B (SRB) cell viability assay, HT-29; assay type: cell-based; conditions: for IC50: Homo sapiens, HT-29, 72 h; for IC50 / IC50 HT-29: colon cancer cells, 72 h of treatment, SRB, mean ± SE of three experiments; for Selectivity Index (SI): IC50 for normal cells CCD 841 CoN / IC50 for cancer cells HT-29
Description: Cell viability was quantified using the Sulforhodamine B assay described by Skehan et al.. Cells were plated with a density of 5 × 10^3 (HT-29) and 1 × 10^4 (CCD 841 CoN) cells/well and allowed to attach at 37 °C in an atmosphere with 5% CO2. After 24 h, the AMTs dissolved in DMSO were added to the cells (final concentrations of 10, 20, 30, and 50 µg/mL and less than 0.05% of DMSO) and the plates were incubated for 72 h. Then, the cells were fixed by adding 50 μL of TCA (50%) to each well and the plates were maintained for 1 h at 4 °C. The plates were washed five times with deionized water, air-dried, and stained for 30 min at room temperature with 100 μL of 0.4% (w/v) SRB prepared in 1% (v/v) acetic acid. The plates were rinsed quickly five times with 1% acetic acid to remove unbound dye, followed by air-drying. The bound dye was solubilized in 2 mM Tris base (100 μL/well) for 5 min. Optical densities were read on a microplate reader (Spectrophotometer LabsystemsMultiskan EX, λ 492 nm). Three independent assays were conducted, each one in duplicate. A standard curve was constructed for each experiment and used for converting the measured optical density values into numbers of viable cells/well. The inhibition rate was used to evaluate the cell viability and its algorithm was the following formula: ((ODcontrol − ODtreatment)/ODcontrol) × 100; OD, optical density. The OD492 for control cells was taken as 100% viability. The half maximal inhibitory concentration (IC50) was calculated. The selectivity index (SI) of each compound was calculated as IC50 of the compound against the CCD 841 CoN normal cell line/IC50 of the same compound against the HT-29 cancer cell line.

p-JNK in HT-29 cells = assay: Western blot of phosphorylated JNK; assay type: cell-based, human; conditions: 24 h; 10 and 20 μg/mL for 1, 2, 5, 6, 7, 8; 30 and 60 μg/mL for 3 and 4
Description: (§1) Cells were cultured to 80% confluence at 37 °C. After 24 h of treatment with the compounds (10 and 20 µg/mL for compounds 1, 2, 5, 6, 7, and 8, and 30 and 60 µg/mL for compounds 3 and 4), HT-29 cells were rinsed twice with ice-cold PBS, and then lysed immediately in lysis buffer (250 mM NaCl, 50 mM Tris (pH 7.5), 0.5 mM EDTA, 5 mM EGTA, 8 mM MgCl2, 1 mM PMSF, 0.01 mg/mL pepstatin A, 0.01 mg/mL leupeptin, 0.01 mg/mL aprotinin, 1% Triton X-100). After centrifugation at 12,000 g for 3 min at 4°C to separate the cellular debris, the supernatant was collected and stored at −80°C until use. The protein concentrations were determined using Bio-Rad Protein Assay (BioRad, Richmond, CA, USA), according to the manufacturer’s instructions.
(§2) Equal protein content (50 μg) samples of cell lysates were separated on 10% SDS–polyacrylamide gel and transferred to polyvinylidene difluoride membranes (Hybond-P, Amershan Biosciences, Little Chalfont, UK). The membranes were blocked with 5% (w/v) non-fat dry milk in Tris-buffered saline containing 0.1% Tween-20 buffer (pH 7.4) (TBST) for 1 h at room temperature and incubated with agitation with specific antibodies: anti-pERK1/2 (Cell Signaling; 1:1000), anti-pJNK (Cell Signaling; 1:1000), anti-pAKT (Cell Signaling; 1:1000), anti-β-actin (Sigma-Aldrich; 1:500). Membranes were incubated overnight at 4°C with gentle shaking. The secondary antibody was a peroxidase-conjugated goat anti-mouse or -rabbit antibody (1:10,000; DakoCytomation, Carpinteria, CA, USA). After washing the membrane three times in TBST buffer (10 min), the signals were detected using an enhanced chemiluminescence light-detecting kit (Super-Signal West Pico Chemiluminescent Substrate, Pierce, IL, USA), according to the manufacturer’s instructions and exposed to an X-ray film (GE Healthcare Ltd., Amersham, UK). The protein band densities were analyzed and quantified with a Scientific Imaging Systems (Biophotonics ImageJ Analysis Software, National Institute of Mental Health, Bethesda, MD, USA). β-actin was used to confirm the equal loading and transfer of proteins.

p-AKT in HT-29 cells = assay: Western blot of phosphorylated AKT; assay type: cell-based, human; conditions: 24 h; 10 and 20 μg/mL for 1, 2, 5, 6, 7, 8; 30 and 60 μg/mL for 3 and 4
Description: as §1, §2

HT-29 cells = assay: Cultrex 96 well BME cell invasion assay; assay type: cell-based; conditions: Homo sapiens, 24 h; for inhibition at 10 µg/mL: 10 μg/mL
Description: The invasion activities were measured using Trevigen’s Cultrex® 96 Well Cell Invasion Assays, as previously described. Briefly, about 50 μL of 1X basement membrane extract (BME) in coat buffer was added to each well. After incubation for 4 h at 37 °C in a 5% CO2 atmosphere, the HT-29 cells at 50,000 cells/50μL in serum free McCoy’s medium were added per well to the top chamber containing the tested compound (10 µg/mL for 1, 2, 5, 6, 7, and 8, and 30 µg/mL for compounds 3 and 4). About 150 μL of McCoy’s medium was then added to the lower chamber containing 10% FBS and penicillin/streptomycin as chemoattractants. Cells were allowed to migrate to the lower chamber in a humidified atmosphere containing 5% CO2 at 37 °C for 24 h. Afterwards, top and bottom chambers were aspirated and washed with washing buffer supplemented with the kit. About 100 μL of Cell Dissociation Solution/Calcein-AM was added to each bottom chamber well and incubated for 1 h at 37 °C in CO2 incubator. The cells internalized calcein-AM and the intracellular esterases cleaved the AM moiety to generate free calcein. Fluorescence of the samples was determined at 485 nm excitation, 520 nm emission, using ELISA plate reader (BioTek Instruments, Winooski, VT, USA). The number of cells that had invaded through the BME coat was calculated using a standard curve. Results were expressed as percentage of invasion (%) compared to the control.

Compound: COc1c(C)cc(O)cc1C/C=C(\C)CC(=O)/C=C(\C)CCCC(C)(O)C(=O)/C=C/C(C)(C)O (stereo not drawn) [Compound 2, 11-hydroxy-1′-O-methylamentadione]
- IC50 [1]: 9.14 ± 0.23 µg/mL (≈ 19.3 µM)
- Selectivity Index (SI) [1]: 2.34
- phospho-JNK level vs control (p-JNK in HT-29 cells): decreased phosphorylation
- expression of p-AKT protein vs control (p-AKT in HT-29 cells): significantly downregulated

Compound: COc1c(C)cc(O)cc1/C=C/C(C)(O)CC(=O)/C=C(/C)CCCC(C)C(=O)/C=C/C(C)(C)O (stereo not drawn) [Compound 7, cystodione A]
- IC50 [1]: 14 ± 1.33 µg/mL (≈ 29.6 µM)
- Selectivity Index (SI) [1]: >3.57
- phospho-JNK level vs control (p-JNK in HT-29 cells): decreased phosphorylation
- expression of p-AKT protein vs control (p-AKT in HT-29 cells): significantly downregulated

Compound: COc1c(C)cc(O)cc1C/C=C(\C)CC(=O)/C=C(/C)CCCC(C)(O)C(=O)/C=C/C(C)(C)O (stereo not drawn) [Compound 1, usneoidone Z]
- IC50 [1]: 8.81 ± 1.55 µg/mL (≈ 18.6 µM)
- Selectivity Index (SI) [1]: 5.26
- inhibition at 10 µg/mL (HT-29 cells): > 40%
- expression of p-AKT protein vs control (p-AKT in HT-29 cells): significantly downregulated

Compound: COc1c(C)cc(O)cc1C/C=C(\C)CC(=O)/C=C(\C)CCCC(C)=O [Compound 3, cystomexicone B]
- IC50 [1]: 36.9 µg/mL (≈ 103 µM)
- Selectivity Index (SI) [1]: >1.45
- IC50 HT-29 [1]: 34.34 ± 1.81 µg/mL (≈ 95.8 µM)
- inhibition at 30 µg/mL (HT-29 cells; 30 μg/mL (methods, Figure 5C)): > 40%
- phospho-JNK level vs control (p-JNK in HT-29 cells): decreased phosphorylation
- expression of p-AKT protein vs control (p-AKT in HT-29 cells): significantly downregulated

Compound: COc1c(C)cc(O)cc1/C=C/C(C)(O)CC(=O)/C=C(\C)CCCC(C)C(=O)/C=C/C(C)(C)O (stereo not drawn) [Compound 8, cystodione B]
- IC50 [1]: 9.14 µg/mL (≈ 19.3 µM)
- Selectivity Index (SI) [1]: 3.51
- IC50 HT-29 [1]: 9.08 ± 1.04 µg/mL (≈ 19.2 µM)
- inhibition at 10 µg/mL (HT-29 cells): > 40%
- phospho-JNK level vs control (p-JNK in HT-29 cells): decreased phosphorylation
- expression of p-AKT protein vs control (p-AKT in HT-29 cells): significantly downregulated

— publication PMC7143549, “Anticancer Activities of Meroterpenoids Isolated from the Brown Alga Cystoseira usneoides against the Human Colon Cancer Cells HT-29” (Foods, 2020)
